In one assay the target is TNIK (Homo sapiens (Human), UniProt Q9UKE5). Description: TNIK enzymatic assay (radiometric kinase inhibition). Format: biochemical. The protocol:
The compounds were studied for function as TNIK inhibitors to generate the data of Table 1. […] (specific activity and concentration as required). The reaction is initiated by the addition of the Mg/ATP mix. After incubation for 40 minutes at room temperature, the reaction is stopped by the addition of phosphoric acid to a concentration of 0.5%.

The target in another assay is MAP4K4 (h) (Homo sapiens (Human), UniProt O95819). Nature of the assay: MAP4K4 in vitro kinase assay (radiometric). Format: biochemical. The conditions noted are these: read-out: MAP4K4_IC50. The protocol:
(specific activity and concentration as required). The reaction is initiated by the addition of the Mg/ATP mix. After incubation for 40 minutes at room temperature, the reaction is stopped by the addition of phosphoric acid to a concentration of 0.5%.

The mark [1] stands for this setting: TNIK enzymatic assay, Table 1, read-out: IC50.

SMILES strings stand for the structures. Where two headings read alike, the source gives them in different places.

Sequence of TNIK (Q9UKE5 whole entry): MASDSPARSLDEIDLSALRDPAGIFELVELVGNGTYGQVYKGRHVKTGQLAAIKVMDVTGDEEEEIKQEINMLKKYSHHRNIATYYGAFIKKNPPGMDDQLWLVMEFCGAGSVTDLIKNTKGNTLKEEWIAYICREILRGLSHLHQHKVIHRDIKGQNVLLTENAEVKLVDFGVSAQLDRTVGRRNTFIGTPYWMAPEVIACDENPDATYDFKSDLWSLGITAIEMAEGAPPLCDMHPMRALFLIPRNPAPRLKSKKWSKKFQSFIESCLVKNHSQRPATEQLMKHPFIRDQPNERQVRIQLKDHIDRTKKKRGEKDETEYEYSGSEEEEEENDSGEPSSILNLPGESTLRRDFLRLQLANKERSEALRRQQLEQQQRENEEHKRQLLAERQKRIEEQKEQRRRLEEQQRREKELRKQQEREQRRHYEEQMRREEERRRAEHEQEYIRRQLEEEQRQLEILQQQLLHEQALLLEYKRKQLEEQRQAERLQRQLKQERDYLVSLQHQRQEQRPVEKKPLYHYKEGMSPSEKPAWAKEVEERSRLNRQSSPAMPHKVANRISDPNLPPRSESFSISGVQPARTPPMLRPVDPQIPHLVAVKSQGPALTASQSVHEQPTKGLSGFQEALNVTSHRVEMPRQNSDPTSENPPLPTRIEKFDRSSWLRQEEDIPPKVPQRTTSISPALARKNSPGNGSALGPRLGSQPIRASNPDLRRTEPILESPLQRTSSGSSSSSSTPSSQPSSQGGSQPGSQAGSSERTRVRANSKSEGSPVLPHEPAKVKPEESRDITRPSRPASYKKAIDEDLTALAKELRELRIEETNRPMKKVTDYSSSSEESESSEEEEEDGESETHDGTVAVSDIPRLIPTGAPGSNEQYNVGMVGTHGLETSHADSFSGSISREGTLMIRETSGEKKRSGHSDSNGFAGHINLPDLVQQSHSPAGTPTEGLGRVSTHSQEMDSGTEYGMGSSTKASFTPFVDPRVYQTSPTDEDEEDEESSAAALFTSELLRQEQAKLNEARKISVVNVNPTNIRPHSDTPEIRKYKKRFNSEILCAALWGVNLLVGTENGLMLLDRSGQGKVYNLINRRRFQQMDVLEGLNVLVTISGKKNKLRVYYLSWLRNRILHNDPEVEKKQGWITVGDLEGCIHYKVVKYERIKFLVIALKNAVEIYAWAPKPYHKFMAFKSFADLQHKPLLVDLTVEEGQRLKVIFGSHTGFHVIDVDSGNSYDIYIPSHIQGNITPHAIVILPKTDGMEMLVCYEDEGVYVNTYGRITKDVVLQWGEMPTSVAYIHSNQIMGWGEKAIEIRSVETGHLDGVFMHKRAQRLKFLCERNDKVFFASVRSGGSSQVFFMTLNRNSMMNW
Sequence of MAP4K4 (h) (O95819 whole entry): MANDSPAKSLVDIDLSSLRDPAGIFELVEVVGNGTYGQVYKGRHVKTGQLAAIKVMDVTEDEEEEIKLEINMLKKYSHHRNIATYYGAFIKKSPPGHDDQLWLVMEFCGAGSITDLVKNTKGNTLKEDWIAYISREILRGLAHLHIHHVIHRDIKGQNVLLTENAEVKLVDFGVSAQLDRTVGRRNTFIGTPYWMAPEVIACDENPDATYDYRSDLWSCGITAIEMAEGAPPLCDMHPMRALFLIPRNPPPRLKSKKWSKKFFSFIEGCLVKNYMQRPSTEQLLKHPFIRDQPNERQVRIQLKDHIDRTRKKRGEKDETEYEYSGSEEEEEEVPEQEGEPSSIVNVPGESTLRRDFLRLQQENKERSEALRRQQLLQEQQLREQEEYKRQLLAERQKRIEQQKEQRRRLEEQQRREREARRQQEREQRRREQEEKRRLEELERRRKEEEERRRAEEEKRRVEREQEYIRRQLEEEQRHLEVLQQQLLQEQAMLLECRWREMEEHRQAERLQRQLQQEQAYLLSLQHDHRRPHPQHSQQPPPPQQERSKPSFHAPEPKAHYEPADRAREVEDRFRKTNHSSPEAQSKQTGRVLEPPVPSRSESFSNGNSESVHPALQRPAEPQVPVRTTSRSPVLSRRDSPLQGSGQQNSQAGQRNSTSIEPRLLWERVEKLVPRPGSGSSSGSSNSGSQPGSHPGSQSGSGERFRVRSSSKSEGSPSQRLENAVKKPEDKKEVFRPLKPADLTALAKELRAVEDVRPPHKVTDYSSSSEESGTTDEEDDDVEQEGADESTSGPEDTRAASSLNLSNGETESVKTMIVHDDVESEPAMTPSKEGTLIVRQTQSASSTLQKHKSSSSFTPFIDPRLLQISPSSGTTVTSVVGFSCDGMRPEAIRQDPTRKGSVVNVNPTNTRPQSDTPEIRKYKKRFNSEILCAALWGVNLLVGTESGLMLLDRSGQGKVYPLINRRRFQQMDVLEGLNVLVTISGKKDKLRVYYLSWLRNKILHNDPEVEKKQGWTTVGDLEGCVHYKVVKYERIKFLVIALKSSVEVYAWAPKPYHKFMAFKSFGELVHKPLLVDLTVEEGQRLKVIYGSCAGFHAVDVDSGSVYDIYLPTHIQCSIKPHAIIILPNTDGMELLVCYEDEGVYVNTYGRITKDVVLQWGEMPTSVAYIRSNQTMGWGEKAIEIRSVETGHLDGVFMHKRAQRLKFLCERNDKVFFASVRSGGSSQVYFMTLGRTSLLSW

On to `O=C(Nc1ccccc1Br)c1ccc(-c2c(-c3ccc(F)cc3)ncn2C2CCCC2)o1` [Compound 13, N-(2-bromophenyl)-5-(1-cyclopentyl-4-(4-fluorophenyl)-1H-imidazol-5-yl)furan-2-carboxamide], for which the IC50 on TNIK (setting [1]) was below 10 nM; at TNIK (read-out: TNIK_IC50), 12 nM; on MAP4K4 (h), 15.2 nM.
On to `O=C(Nc1ccc(Cl)cc1)c1ccc(-c2c(-c3ccc(F)cc3)ncn2C2CCCC2)o1` [Compound 15, N-(4-chlorophenyl)-5-(1-cyclopentyl-4-(4-fluorophenyl)-1H-imidazol-5-yl)furan-2-carboxamide], for which the results for the IC50 at TNIK (setting [1]), at TNIK (read-out: TNIK_IC50) and at MAP4K4 (h) were 101 nM, 101 nM and 116 nM, respectively.
As for `O=C(Nc1cc(F)ccc1F)c1ccc(-c2c(-c3ccc(F)cc3)ncn2C2CCCC2)o1` [Compound 3, 5-(1-cyclopentyl-4-(4-fluorophenyl)-1H-imidazol-5-yl)-N-(2,5-difluorophenyl)furan-2-carboxamide], the IC50 at TNIK (setting [1]) is below 10 nM; on TNIK (read-out: TNIK_IC50) it was 3.82 nM; on MAP4K4 (h), 24.6 nM.
The matching figures for `CC(=O)c1ccc(NC(=O)c2ccc(-c3c(-c4ccc(F)cc4)ncn3C3CCCCC3)o2)cc1` [Compound 51, N-(4-acetylphenyl)-5-(1-cyclohexyl-4-(4-fluorophenyl)-1H-imidazol-5-yl)furan-2-carboxamide]: 57 nM, 57 nM and 126 nM.
For the molecule `O=C(Nc1ccccc1Cl)c1ccc(-c2c(-c3ccc(F)cc3)ncn2C2CCCCC2)o1` [Compound 55, N-(2-chlorophenyl)-5-(1-cyclohexyl-4-(4-fluorophenyl)-1H-imidazol-5-yl)furan-2-carboxamide], the IC50 at TNIK (setting [1]) was 24 nM; on TNIK (read-out: TNIK_IC50), 24 nM; on MAP4K4 (h), 43.4 nM.
Turning to `Cc1ccc(-c2ncn(C3CCCCC3)c2-c2ccc(C(=O)Nc3ccc(F)cc3)o2)cc1` [Compound 8, 5-(1-cyclohexyl-4-(p-tolyl)-1H-imidazol-5-yl)-N-(4-fluorophenyl)furan-2-carboxamide], the results for the IC50 at TNIK (setting [1]), at TNIK (read-out: TNIK_IC50) and on MAP4K4 (h) were 4450 nM, 4450 nM and above 1000 nM, respectively.
For the molecule `CC(=O)c1ccc(NC(=O)c2ccc(-c3c(-c4ccc(F)cc4)ncn3C3CCCC3)o2)cc1` [Compound 9, N-(4-acetylphenyl)-5-(1-cyclopentyl-4-(4-fluorophenyl)-1H-imidazol-5-yl)furan-2-carboxamide], the figures for the IC50 on TNIK (setting [1]), on TNIK (read-out: TNIK_IC50) and at MAP4K4 (h) were 11 nM, 11 nM and 36.8 nM, respectively.
For the molecule `CCc1cccc(C)c1NC(=O)c1ccc(-c2c(-c3ccc(F)cc3)ncn2C2CCCC2)o1` [Compound 37, 5-(1-cyclopentyl-4-(4-fluorophenyl)-1H-imidazol-5-yl)-N-(2-ethyl-6-methylphenyl)furan-2-carboxamide], the figures for the IC50 at TNIK (setting [1]), at TNIK (read-out: TNIK_IC50) and on MAP4K4 (h) were 900 nM, 900 nM and above 1000 nM, respectively.
Regarding `COC(=O)c1ccccc1NC(=O)c1ccc(-c2c(-c3ccc(F)cc3)ncn2C2CCCC2)o1` [Compound 27, methyl 2-(5-(1-cyclopentyl-4-(4-fluorophenyl)-1H-imidazol-5-yl)furan-2-carboxamido)benzoate], the IC50 on TNIK (setting [1]) is below 10 nM; on TNIK (read-out: TNIK_IC50) it was 5.11 nM; on MAP4K4 (h) it was 11.5 nM.
For `O=C(Nc1ccc(F)cc1F)c1ccc(-c2c(-c3ccc(F)cc3)ncn2C2CCCC2)o1` [Compound 1, 5-(1-cyclopentyl-4-(4-fluorophenyl)-1H-imidazol-5-yl)-N-(2,4-difluorophenyl)furan-2-carboxamide], the IC50 amounted to 30 nM at TNIK (setting [1]), 30 nM at TNIK (read-out: TNIK_IC50) and 97.6 nM on MAP4K4 (h).
Regarding `Cc1ccc(NC(=O)c2ccc(-c3c(-c4ccc(F)cc4)ncn3C3CCCC3)o2)c(C)c1` [Compound 32, 5-(1-cyclopentyl-4-(4-fluorophenyl)-1H-imidazol-5-yl)-N-(2,4-dimethylphenyl)furan-2-carboxamide], the IC50 on TNIK (setting [1]) stood at 12 nM; on TNIK (read-out: TNIK_IC50), 12 nM; at MAP4K4 (h), 96.9 nM.
Turning to `O=C(Nc1c(O)cncc1F)c1ccc(-c2c(-c3ccc(F)cc3)ncn2C2COCC2F)o1` (stereo not drawn) [Compound A-56, N-(3-fluoro-5-hydroxypyridin-4-yl)-S-(4-(4-fluorophenyl)-1-(4-fluorotetrahydrofuran-3-yl)-1H-imidazol-5-yl)furan-2-carboxamide], the IC50 at TNIK (read-out: TNIK_IC50) turned out to be 1340 nM; at MAP4K4 (h), 3070 nM.
Take `Cc1ccc(NC(=O)c2ccc(-c3c(-c4ccc(F)cc4)ncn3C3CCCCC3)o2)c(C)c1` [Compound 67, 5-(1-cyclohexyl-4-(4-fluorophenyl)-1H-imidazol-5-yl)-N-(2,4-dimethylphenyl)furan-2-carboxamide]: the IC50 was 77 nM at TNIK (setting [1]), 77 nM at TNIK (read-out: TNIK_IC50) and 247 nM on MAP4K4 (h).
`O=C(Nc1ccc(Cl)cc1F)c1ccc(-c2c(-c3ccc(F)cc3)ncn2C2CCCC2)o1` [Compound 42, N-(4-chloro-2-fluorophenyl)-5-(1-cyclopentyl-4-(4-fluorophenyl)-1H-imidazol-5-yl)furan-2-carboxamide]: the results for the IC50 on TNIK (setting [1]), on TNIK (read-out: TNIK_IC50) and on MAP4K4 (h) were 19 nM, 19 nM and 41.3 nM, respectively.
Take `Cc1ccccc1NC(=O)c1ccc(-c2c(-c3ccc(F)cc3)ncn2C2CCCC2)o1` [Compound 29, 5-(1-cyclopentyl-4-(4-fluorophenyl)-1H-imidazol-5-yl)-N-(o-tolyl)furan-2-carboxamide]: the IC50 stood at 62 nM on TNIK (setting [1]), 62 nM at TNIK (read-out: TNIK_IC50) and 115 nM at MAP4K4 (h).
In the case of `O=C(Nc1ccncn1)c1ccc(-c2c(-c3ccc(F)cc3)ncn2C2COCC2(F)F)o1` (centres unmarked) [Compound A-40, 5-(1-(4,4-difluorotetrahydrofuran-3-yl)-4-(4-fluorophenyl)-1H-imidazol-5-yl)-N-(pyrimidin-4-yl)furan-2-carboxamide], the IC50 at TNIK (read-out: TNIK_IC50) is 26.3 nM; on MAP4K4 (h), 50.5 nM.
In the case of `CC(=O)Nc1ccc(NC(=O)c2ccc(-c3c(-c4ccc(F)cc4)ncn3C3CCCCC3)o2)cc1` [Compound 78, N-(4-acetamidophenyl)-5-(1-cyclohexyl-4-(4-fluorophenyl)-1H-imidazol-5-yl)furan-2-carboxamide], the IC50 at TNIK (setting [1]) worked out at 15 nM; at TNIK (read-out: TNIK_IC50) it was 15 nM; at MAP4K4 (h), 34.6 nM.
As to `CCOc1ccc(NC(=O)c2ccc(-c3c(-c4ccc(F)cc4)ncn3C3CCCCC3)o2)cc1` [Compound 64, 5-(1-cyclohexyl-4-(4-fluorophenyl)-1H-imidazol-5-yl)-N-(4-ethoxyphenyl)furan-2-carboxamide], the results for the IC50 on TNIK (setting [1]), on TNIK (read-out: TNIK_IC50) and at MAP4K4 (h) were 62 nM, 62 nM and 175 nM, respectively.
As to `Cc1ccc(NC(=O)c2ccc(-c3c(-c4ccc(F)cc4)ncn3C3CCCCC3)o2)cc1Cl` [Compound 66, N-(3-chloro-4-methylphenyl)-5-(1-cyclohexyl-4-(4-fluorophenyl)-1H-imidazol-5-yl)furan-2-carboxamide], the IC50 is 531 nM on TNIK (setting [1]), 531 nM on TNIK (read-out: TNIK_IC50) and above 1000 nM at MAP4K4 (h).
Consider `Cc1cc(NC(=O)c2ccc(-c3c(-c4ccc(F)cc4)ncn3C3COC3)o2)c(F)cn1` [Compound A-48, N-(5-fluoro-2-methylpyridin-4-yl)-5-(4-(4-fluorophenyl)-1-(oxetan-3-yl)-1H-imidazol-5-yl)furan-2-carboxamide], for which the IC50 amounted to 49.9 nM at TNIK (read-out: TNIK_IC50) and 194 nM on MAP4K4 (h).
As for `O=C(Nc1ccccc1F)c1ccc(-c2c(-c3cncnc3)ncn2C2CCCC2)o1` [Compound 94, 5-(1-cyclopentyl-4-(pyrimidin-5-yl)-1H-imidazol-5-yl)-N-(2-fluorophenyl)furan-2-carboxamide], the IC50 on TNIK (read-out: TNIK_IC50) and on MAP4K4 (h) was above 10000 nM each time.
Take `CC(C)c1ccc(NC(=O)c2ccc(-c3c(-c4ccc(F)cc4)ncn3C3CCCC3)o2)cc1` [Compound 38, 5-(1-cyclopentyl-4-(4-fluorophenyl)-1H-imidazol-5-yl)-N-(4-isopropylphenyl)furan-2-carboxamide]: the IC50 at TNIK (setting [1]) was 46 nM; on TNIK (read-out: TNIK_IC50), 46 nM; on MAP4K4 (h), 168 nM.
Take `Cc1ccc(Cl)cc1NC(=O)c1ccc(-c2c(-c3ccc(F)cc3)ncn2C2CCCC2)o1` [Compound 17, N-(5-chloro-2-methylphenyl)-5-(1-cyclopentyl-4-(4-fluorophenyl)-1H-imidazol-5-yl)furan-2-carboxamide]: the IC50 turned out to be 46 nM at TNIK (setting [1]), 46 nM on TNIK (read-out: TNIK_IC50) and 106 nM at MAP4K4 (h).
For the molecule `COc1cnccc1NC(=O)c1ccc(-c2c(-c3ccc(F)cc3)ncn2CC2CCOC2)o1` (centres unmarked) [Compound A-37, 5-(4-(4-fluorophenyl)-1-((tetrahydrofuran-3-yl)methyl)-1H-imidazol-5-yl)-N-(3-methoxypyridin-4-yl)furan-2-carboxamide], the IC50 on TNIK (read-out: TNIK_IC50) worked out at 26.4 nM; on MAP4K4 (h) it was 50.3 nM.
With `COc1ccc(C)cc1NC(=O)c1ccc(-c2c(-c3ccc(F)cc3)ncn2C2CCCCC2)o1` [Compound 77, 5-(1-cyclohexyl-4-(4-fluorophenyl)-1H-imidazol-5-yl)-N-(2-methoxy-5-methylphenyl)furan-2-carboxamide], the values for the IC50 at TNIK (setting [1]), at TNIK (read-out: TNIK_IC50) and at MAP4K4 (h) were 27 nM, 27 nM and 62.2 nM, respectively.
For `O=C(Nc1cc[nH]c(=O)c1)c1ccc(-c2c(-c3ccc(F)cc3)ncn2C2COC[C@@H]2F)o1` (mixture of isomers) [Compound A-57, rac-5-(4-(4-fluorophenyl)-1-((4R)-4-fluorotetrahydrofuran-3-yl)-1H-imidazol-5-yl)-N-(2-oxo-1,2-dihydropyridin-4-yl)furan-2-carboxamide], the IC50 on TNIK (read-out: TNIK_IC50) worked out at 1160 nM.

The values are drawn from patent US11739078B2, “Methods of inhibiting kinases” (INSILICO MEDICINE IP LIMITED, priority 2019, dated 2023).
